Data from patent US7772192B2, “Compositions and methods for treatment of disease with acetylated disaccharides” (The Regents of the University of California, priority 2003, dated 2010).

Tests used:
[1] = system: mucin-like oligosaccharides that carry sLe^X determinants; conditions: among several disaccharides; cited from earlier work
LS180 cells = experiment: Biodistribution of pretreated radiolabeled tumor cells in mice; assay type: in vivo
Procedure: Biodistribution studies in mice. LS180 cells were grown for 3 days in the presence or absence of 50 μM AcGnG-NM. [^3H-methyl]thymidine (10 μCi/ml, NEN Life Sciences Products) was added to the medium, and cells were incubated for another 3 days. The cells were then harvested with EDTA, resuspended in sterile 0.9% saline, and injected (1×10^5 cells/100 μL) into the lateral tail vein of anesthetized (inhaled methoxyflurane, Janssen Pharmaceuticals) 6-8 week-old wildtype C57BL/6 mice or P-selectin deficient mice bred on the same background (Jackson Laboratory). Mayadas et al., Cell, 74: 541-554, 1993. […] The organs were digested at 55° C. overnight with Proteinase K (0.15 μg/ml, Boehringer Mannheim) in 2 mL PBS containing 1% sodium dodecyl sulfate, and homogenized by repeated passage through an 18 gauge needle. The amount of radioactive DNA in the blood and the organ extracts was then determined using an Easy DNA Kit (Invitrogen) and liquid scintillation spectrometry. The total counts in blood were estimated by assuming a total blood volume of 2 mL per mouse. Proper attention has been given to experimental ethical considerations towards animals as prescribed by the Animal Subjects Program at the University of California.
Altered biodistribution of AcGnG-NM treated tumor cells. The lung is the major “first-pass” adhesion target for tumor cells introduced into the venous circulation. […] Radiolabeled cells were injected into the lateral tail vein of C57BL/6 mice, and allowed to circulate for 3 hours. Mice were sacrificed and DNA was extracted from organ homogenates and whole blood. The counts were normalized to the total recovered counts, which typically represented 80-90% of the injected samples. In FIG. 6A, each value represents the average recoveries from 4 wildtype mice±standard deviation from the mean. In FIG. 6B, the experiment was repeated in P-selectin deficient C57BL/6 mice that were injected with either control- or AcGnG-NM-treated LS180 cells. […]

LLC cells = experiment: Spontaneous tumor metastasis of LLC cells, compound by osmotic pump; assay type: in vivo, mice; conditions: ~1 mg/day/mouse, 4 weeks
Procedure: Osmotic pumps (ref 4) containing vehicle or peracetylated GlcNAcβ3Gal-NM were surgically implanted in a dorsal skin fold of Es1(e) mice and LLC cells (5×10^5) were implanted subcutaneously in the hindquarter. The dose rate of compound was ˜1 mg/day/mouse. Panel A. To detect tumor cells in the lungs, after 4 weeks each animal was injected intraperitoneally with 1 mg of BrdU (bromodeoxyuridine (BrdU), which is taken up by dividing cells—tumor cells, and therefore indicates the quantity of tumor cells in the lungs when cells from the lungs are stained with anti-BrdU antibodies). The animals were sacrificed, the heart was perfused with PBS and the lungs removed. Each lung was incubated with collagenase (10 mg/ml, 1 h, 37° C.), syringed through an 18-gauge needle and filtered through a […] nylon filter, and cells were fixed (70% ethanol, 1×10^6 cells/ml). The relative number of BrdU-labeled cells in the lungs was determined by flow cytometry (FACS) using a mouse anti-BrdU-FITC antibody. Control experiments used mouse IgG-FITC antibody. Statistics were calculated by one-way ANOVA tests comparing three groups of 4-7 animals. […] Statistics were calculated by student t-test comparing two groups of 4-7 animals.

[2] = system: LS180 colon carcinoma cells; experiment: Adhesion of activated human platelets to tumor cells (LS180); assay type: cell-based; conditions: 50 μM, 3 days, thrombin-activated human platelets
Procedure: Adhesion of activated human platelets to tumor cells. Tumor cells were seeded into 6-well plates (5×10^4/well), and allowed to grow into colonies in the presence or absence of 50 μM AcGnG-NM. After 3 days, platelets were isolated from 15 ml of normal human blood collected into 20% (v/v) Acid-Citrate-Dextrose (ACD) anticoagulant. A platelet-rich plasma was prepared by centrifugation and repeated washing using PSG buffer (5 mM HEPES, pH 6.8, 145 mM NaCl, 4 mM KCl, 0.5 mM sodium phosphate, 5.5 mM glucose, 0.5% BSA, and 25 nM prostaglandin E1 [Sigma]). The platelets were then labeled with Calcein AM (5 μM), and counted with a hemocytometer. Wells containing tumor cells were washed with HBSS, and 3×10^6 platelets were added in 1 ml of HBSS followed by activation with human thrombin (0.8 IU/well; Sigma). The plates were rocked for 10 min, and the wells were washed twice with HBSS, fixed with 5% formalin in HBSS, and analyzed by fluorescence microscopy. […]
Platelets bound to tumor cells were visualized by fluorescence microscopy (Nikon Diaphot) equipped with a digital camera (Nikon) linked to an Apple Macintosh computer with Adobe Photoshop software. The fluorescence image showing the platelets was superimposed on a phase-contrast picture of the cells and the number of attached platelets was quantified. […]

[3] = wildtype C57BL/6 mice, 3 hours, cells pretreated with 50 μM

Question: Which potency as primer [1] does the source give for “GlcNAcβ1,3Galβ-O-naphthalenemethanol [AcGnG-NM]” here?
Answer: highest potency

Question: And the “distribution of treated versus untreated cells” value (LS180 cells; P-selectin deficient mice)?
Answer: no difference

Question: And the “counts recovered in the blood compartment” value (LS180 cells; [3])?
Answer: corresponding increase

Question: What about the “seeding of the lungs” value (LS180 cells; [3]) of the same substance?
Answer: substantially reduced

Question: And the “spontaneous tumor metastasis (BrdU-labeled cells in the lungs)” value (LLC cells)?
Answer: Inhibits Spontaneous Tumor Metastasis

Question: What about the “reduction of platelet adhesion” value [2] of the same substance?
Answer: 60%
